Assay results as given in US11666565B2, “Treatment of cancer using a SMAD3 inhibitor” (The Chinese University of Hong Kong, priority 2012, dated 2023).

Legend:
[1] = tested on: lung carcinoma (LLC)
Method: (§1) Therapeutic effect of SIS3 was tested in subcutaneously invasive mouse model of lung carcinoma and melanoma. Lucifase-labeled highly invasive mouse lung carcinoma cells (LLC-luc) and melanoma cells (B16F10-luc) were injected subcutaneously into genetically-identical C57/BL6 mice at a dose of 2 million cells in 200 ul PBS per mouse. Cancer growth, invasion, and metastasis were monitored by measuring tumor size, weight, and bioluminescent imaging weekly. After cancer was established at one week after implantation, tumor-bearing mice received intraperitoneally SIS3 at dosages of 2.5, 5, and 10 ug/Kg body weight daily for 2 weeks. Control animals received daily saline, instead of SIS3, and a group of tumor-bearing mice without any treatment (used as untreated controls) were also monitored. Five mice per group were used in this study. Mice were weighed and tumor size or metastasis was examined by live bioluminescent imaging weekly. The survival rate was recorded. All mice were euthanized 2 weeks after treatment for further examination by histology and tumor volume and weight, invasion, and metastasis.

[2] = tested on: melanoma (B16F10); settings: syngeneic mouse model, N=5
Method: as §1

SMILES: COc1cc2c(cc1OC)CN(C(=O)/C=C/c1c(-c3ccccc3)n(C)c3ncccc13)CC2 [SIS3, (6,7-Dimethoxy-2-((2E)-3-(1-methyl-2-phenyl-1H-pyrrolo[2,3-b]pyridin-3-yl-prop-2-enoyl))-1,2,3,4-tetrahydroisoquinoline)]
- detectability of cancers ([1]; after 10 days treatment with SIS3 at doses of 5-10 μg/g body weight, N=5, FIG. 6): most of cancers become undetectable
- invasion into the cancer surrounding tissues and metastasis to lymph nodes, lung, liver, gastric and colon tissue ([1]; lung carcinoma (LLC) mouse model, FIGS. 3-7): suppressed
- cancer growth as demonstrated by tumor weight ([1]; subcutaneous LLC, 2 million cells/mouse, syngeneic mouse model, N=5, FIG. 7A): prevents cancer growth
- cancer weight ([2]; subcutaneous melanoma B16F10, 3 million cells/mouse, FIG. 4): markedly lowering the cancer weight
- melanoma (B16F10) growth by live imaging analysis ([2]; SIS3 intraperitoneally daily, 2.5, 5 and 10 ug/Kg body weight, FIG. 3): inhibits melanoma (B16F10) growth in a dosage-dependent manner
